Test results published in the supplement of paper PMC10627819.

How the values were obtained:
S. aureus DSM 20231 [1] = assay: Bliss interaction score (quartile over a dose matrix) (fitness difference); higher = more antagonism (negative = synergy)
Summary of the method: (§1)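 The Bliss score takes observed fitness and subtracts the expected fitness, calculated as a product of single-drug fitness values. Those single-drug values were inferred from the combination data. Fitness is OD595 at entry into stationary phase divided by the plate's robust no-drug mean, capped at 1, and the score is summarised by quartiles across technical, biological and donor/recipient replicates.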

B. subtilis 168 [2] = assay: as above
Summary of the method: as §1

S. aureus Newman [3] = assay: as above
Summary of the method: as §1

S. pneumoniae D39V [4] = assay: as above
Summary of the method: as §1

S. aureus DSM 20231 [5] = assay: fitness (endpoint OD595 vs no drug) (fraction); higher = more growth
Summary of the method: (§2)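 Cultures at OD595 0.01 were dispensed into 384-well plates in TSB, LB Lennox or CY and incubated at 37 °C. Every 30 min for 14 h, OD595 was read and corrected by the first reading. Fitness is the optical density at entry into stationary phase relative to the robust mean of no-drug control wells, capped at 1.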

B. subtilis 168 [6] = assay: as above
Summary of the method: as §2

S. aureus Newman [7] = assay: as above
Summary of the method: as §2

S. pneumoniae D39V [8] = assay: as above
Summary of the method: as §2
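Wherever Bliss interaction score (quartile over a dose matrix) is given: first quartile when negative (synergy) and third quartile when positive (antagonism).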

CCC[C@@H]1C[C@@H](C(=O)N[C@@H]([C@H]2O[C@H](SC)[C@H](O)[C@@H](O)[C@H]2O)[C@H](C)Cl)N(C)C1 [Clindamycin] + COc1cccc2c1C(=O)c1c(O)c3c(c(O)c1C2=O)C[C@@](O)(C(=O)CO)C[C@@H]3O[C@H]1C[C@H](N)[C@H](O)[C@H](C)O1 [Doxorubicin]
Conditions	Bliss interaction score
B. subtilis 168 [2]	0.0474
S. aureus DSM 20231 [1]	0.075
S. aureus Newman [3]	0.168
S. pneumoniae D39V [4]	-0.0723

fitness
Conditions	partner 0.25 µg/mL	partner 0.5 µg/mL	partner 0.625 µg/mL	partner 1 µg/mL	partner 1.25 µg/mL	partner 2.5 µg/mL
B. subtilis 168 [6], first compound 0.0625 µg/mL	–	–	0.496	–	0.482	0.394
B. subtilis 168 [6], first compound 0.125 µg/mL	–	–	0.363	–	0.408	0.3
B. subtilis 168 [6], first compound 0.25 µg/mL	–	–	0.347	–	0.364	0.214
S. aureus DSM 20231 [5], first compound 0.125 µg/mL	–	–	0.0581	–	0.0433	0.0502
S. aureus Newman [7], first compound 0.0312 µg/mL	–	–	0.641	–	0.684	0.666
S. aureus Newman [7], first compound 0.125 µg/mL	–	–	0.202	–	0.204	0.136
S. pneumoniae D39V [8], first compound 0.0125 µg/mL	0.671	0.697	–	0.759	–	–
S. pneumoniae D39V [8], first compound 0.015 µg/mL	0.751	0.746	–	0.649	–	–
S. pneumoniae D39V [8], first compound 0.025 µg/mL	0.41	0.375	–	0.439	–	–
S. pneumoniae D39V [8], first compound 0.03 µg/mL	0.588	0.576	–	0.495	–	–
S. pneumoniae D39V [8], first compound 0.05 µg/mL	0.115	0.104	–	0.131	–	–
S. pneumoniae D39V [8], first compound 0.06 µg/mL	0.299	0.288	–	0.256	–	–

fitness, B. subtilis 168 [6], one replicate
Conditions	first compound 0.0039 µg/mL	first compound 0.0078 µg/mL	first compound 0.0156 µg/mL
partner 0.625 µg/mL	0.952	0.832	0.818
partner 1.25 µg/mL	≥ 1	0.858	0.793
partner 2.5 µg/mL	≥ 1	0.851	0.852

CCC[C@@H]1C[C@@H](C(=O)N[C@@H]([C@H]2O[C@H](SC)[C@H](O)[C@@H](O)[C@H]2O)[C@H](C)Cl)N(C)C1 [Clindamycin] + C[C@@H]1O[C@@H]1P(=O)(O)O [Fosfomycin]
Conditions	Bliss interaction score
B. subtilis 168 [2]	0.0321
S. aureus DSM 20231 [1]	-0.075
S. aureus Newman [3]	-0.253
S. pneumoniae D39V [4]	0.11

Conditions	fitness
B. subtilis 168 [6], first compound 0.0625 µg/mL, partner 1.562 µg/mL	0.493
B. subtilis 168 [6], first compound 0.0625 µg/mL, partner 3.124 µg/mL	0.419
B. subtilis 168 [6], first compound 0.0625 µg/mL, partner 6.248 µg/mL	0.208
B. subtilis 168 [6], first compound 0.125 µg/mL, partner 1.562 µg/mL	0.311
B. subtilis 168 [6], first compound 0.125 µg/mL, partner 3.124 µg/mL	0.234
B. subtilis 168 [6], first compound 0.125 µg/mL, partner 6.248 µg/mL	0.129
B. subtilis 168 [6], first compound 0.25 µg/mL, partner 1.562 µg/mL	0.226
B. subtilis 168 [6], first compound 0.25 µg/mL, partner 3.124 µg/mL	0.183
B. subtilis 168 [6], first compound 0.25 µg/mL, partner 6.248 µg/mL	0.095
S. aureus DSM 20231 [5], first compound 0.0312 µg/mL, partner 1.562 µg/mL	0.292
S. aureus DSM 20231 [5], first compound 0.0312 µg/mL, partner 3.124 µg/mL	0.104
S. aureus DSM 20231 [5], first compound 0.0625 µg/mL, partner 0.781 µg/mL	0.122
S. aureus DSM 20231 [5], first compound 0.0625 µg/mL, partner 1.562 µg/mL	0.0594
S. aureus DSM 20231 [5], first compound 0.0625 µg/mL, partner 3.124 µg/mL	0.0236
S. aureus DSM 20231 [5], first compound 0.125 µg/mL, partner 0.781 µg/mL	0.0473
S. aureus DSM 20231 [5], first compound 0.125 µg/mL, partner 1.562 µg/mL	0.048
S. aureus DSM 20231 [5], first compound 0.125 µg/mL, partner 3.124 µg/mL	0.0437
S. aureus Newman [7], first compound 0.0312 µg/mL, partner 0.781 µg/mL	0.322
S. aureus Newman [7], first compound 0.0312 µg/mL, partner 1.562 µg/mL	0.0838
S. aureus Newman [7], first compound 0.0312 µg/mL, partner 3.124 µg/mL	0.0458
S. aureus Newman [7], first compound 0.0625 µg/mL, partner 0.781 µg/mL	0.0719
S. aureus Newman [7], first compound 0.0625 µg/mL, partner 1.562 µg/mL	0.0192
S. aureus Newman [7], first compound 0.0625 µg/mL, partner 3.124 µg/mL	0.0091
S. aureus Newman [7], first compound 0.125 µg/mL, partner 0.781 µg/mL	0.0513
S. aureus Newman [7], first compound 0.125 µg/mL, partner 1.562 µg/mL	0.0428
S. aureus Newman [7], first compound 0.125 µg/mL, partner 3.124 µg/mL	0.0521
S. pneumoniae D39V [8], first compound 0.0125 µg/mL, partner 1.25 µg/mL	0.805
S. pneumoniae D39V [8], first compound 0.0125 µg/mL, partner 2.5 µg/mL	0.752
S. pneumoniae D39V [8], first compound 0.0125 µg/mL, partner 5 µg/mL	0.66
S. pneumoniae D39V [8], first compound 0.015 µg/mL, partner 1.25 µg/mL	0.787
S. pneumoniae D39V [8], first compound 0.015 µg/mL, partner 2.5 µg/mL	0.773
S. pneumoniae D39V [8], first compound 0.015 µg/mL, partner 5 µg/mL	0.736
S. pneumoniae D39V [8], first compound 0.025 µg/mL, partner 1.25 µg/mL	0.539
S. pneumoniae D39V [8], first compound 0.025 µg/mL, partner 2.5 µg/mL	0.497
S. pneumoniae D39V [8], first compound 0.025 µg/mL, partner 5 µg/mL	0.475
S. pneumoniae D39V [8], first compound 0.03 µg/mL, partner 1.25 µg/mL	0.621
S. pneumoniae D39V [8], first compound 0.03 µg/mL, partner 2.5 µg/mL	0.583
S. pneumoniae D39V [8], first compound 0.03 µg/mL, partner 5 µg/mL	0.525
S. pneumoniae D39V [8], first compound 0.05 µg/mL, partner 1.25 µg/mL	0.224
S. pneumoniae D39V [8], first compound 0.05 µg/mL, partner 2.5 µg/mL	0.203
S. pneumoniae D39V [8], first compound 0.05 µg/mL, partner 5 µg/mL	0.207
S. pneumoniae D39V [8], first compound 0.06 µg/mL, partner 1.25 µg/mL	0.368
S. pneumoniae D39V [8], first compound 0.06 µg/mL, partner 2.5 µg/mL	0.355
S. pneumoniae D39V [8], first compound 0.06 µg/mL, partner 5 µg/mL	0.291

fitness, B. subtilis 168 [6], one replicate
Conditions	first compound 0.0039 µg/mL	first compound 0.0078 µg/mL	first compound 0.0156 µg/mL
partner 1.562 µg/mL	0.7	0.637	0.556
partner 3.124 µg/mL	0.633	0.564	0.51
partner 6.248 µg/mL	0.55	0.549	0.45

CCC[C@@H]1C[C@@H](C(=O)N[C@@H]([C@H]2O[C@H](SC)[C@H](O)[C@@H](O)[C@H]2O)[C@H](C)Cl)N(C)C1 [Clindamycin] + C[n+]1ccc(-c2cc[n+](C)cc2)cc1 [Paraquat]
Conditions	Bliss interaction score
B. subtilis 168 [2]	0.0483
S. aureus DSM 20231 [1]	-0.0477
S. aureus Newman [3]	-0.112
S. pneumoniae D39V [4]	0.0554

fitness
Conditions	partner 1.25 µg/mL	partner 1.5 µg/mL	partner 2.5 µg/mL	partner 3 µg/mL	partner 5 µg/mL	partner 6 µg/mL
B. subtilis 168 [6], first compound 0.0625 µg/mL	0.607	–	0.513	–	0.512	–
B. subtilis 168 [6], first compound 0.125 µg/mL	0.392	–	0.366	–	0.359	–
B. subtilis 168 [6], first compound 0.25 µg/mL	0.363	–	0.352	–	0.281	–
S. aureus DSM 20231 [5], first compound 0.0625 µg/mL	0.181	–	0.192	–	0.14	–
S. aureus DSM 20231 [5], first compound 0.125 µg/mL	0.0613	–	0.113	–	0.0771	–
S. aureus Newman [7], first compound 0.0312 µg/mL	0.607	–	0.57	–	0.516	–
S. aureus Newman [7], first compound 0.0625 µg/mL	0.271	–	0.241	–	0.207	–
S. aureus Newman [7], first compound 0.125 µg/mL	0.0526	–	0.0427	–	0.0913	–
S. pneumoniae D39V [8], first compound 0.0125 µg/mL	–	0.744	–	0.749	–	0.733
S. pneumoniae D39V [8], first compound 0.025 µg/mL	–	0.489	–	0.482	–	0.458
S. pneumoniae D39V [8], first compound 0.05 µg/mL	–	0.24	–	0.228	–	0.195

fitness, one replicate
Conditions	first compound 0.0039 µg/mL	first compound 0.0078 µg/mL	first compound 0.015 µg/mL	first compound 0.0156 µg/mL	first compound 0.03 µg/mL	first compound 0.06 µg/mL
B. subtilis 168 [6], partner 1.25 µg/mL	≥ 1	0.914	–	0.847	–	–
B. subtilis 168 [6], partner 2.5 µg/mL	0.958	0.846	–	0.857	–	–
B. subtilis 168 [6], partner 5 µg/mL	0.972	0.873	–	0.83	–	–
S. pneumoniae D39V [8], partner 1.5 µg/mL	–	–	0.934	–	0.85	0.692
S. pneumoniae D39V [8], partner 3 µg/mL	–	–	0.949	–	0.92	0.763
S. pneumoniae D39V [8], partner 6 µg/mL	–	–	≥ 1	–	0.914	0.805
